# Values quoted from earlier work in publication PMC7918733, “Biological Profiling of Semisynthetic C19-Functionalized Ferruginol and Sugiol Analogues” (Antibiotics, 2021).
# What was measured:
# [1] = test system: L. donovani promastigotes; conditions: read-out: L. donovani IC50; cited from earlier work
# P. falciparum 3D7 strain = conditions: chloroquine-sensitive strain; cited from earlier work
# P. falciparum K1 strain = conditions: chloroquine-resistant strain; cited from earlier work
# HepG2 = conditions: cytotoxicity; cited from earlier work
# RAJI = conditions: cytotoxicity; cited from earlier work
# BJ = conditions: cytotoxicity; cited from earlier work
# HEK293 = conditions: cytotoxicity; cited from earlier work
# A549 (Lung) = conditions: cited from earlier work
# Vero = conditions: cited from earlier work
structure (smiles),measurement,setting,value
"CC(C)c1cc2c(cc1O)[C@@]1(C)CCCC(C)(C)[C@@H]1CC2 [Compound 1, ferruginol]",IC50,[1],12.2 µM
same,EC50,P. falciparum 3D7 strain,2.47 µM
same,EC50,P. falciparum K1 strain,1.33 µM
same,EC50,HepG2,> 25 µM
same,EC50,RAJI,11.5 µM
same,EC50,BJ,19.6 µM
same,EC50,HEK293,> 25 µM
same,GI50,A549 (Lung),30.7 ± 5.2 µM
same,CC50,Vero,> 16.6 µM
